Experimental data: patent publication US10682415B2, “Thermogel formulation for combination drug delivery” (Wisconsin Alumni Research Foundation, priority 2013, dated 2020)
One block for each compound: values may come before it.

Key:
[1] = neutral pH; cited from earlier work
[2] = tested on: ES-2-luc human ovarian cancer cells; test: In vitro cytotoxicity in ES-2-luc cells
[3] = Initial gel formation experiments (stable thermogel with PLGA-PEG-PLGA); type: physicochemical; details: for Thermogel Formation: drug(s) with PLGA-PEG-PLGA polymer, about 1 mg drug per 10 mg polymer
[4] = Drug release kinetics of thermogel at 37° C. (cassette MWCO 20,000, first-order model); type: physicochemical
Procedure: The drug release kinetics of the composition at 37° C. was evaluated. Data is shown below in Table 1-3. […] Each cassette (MWCO 20,000) contained 0.3 mL of Triogel (n=3). […] The profile of the release kinetics was fit into a first-order model (Prism ver 5.0), as illustrated in FIG. 2.
The release kinetics of 1-drug thermogels (37° C.) were analyzed. Separately, compositions having 6 mg, 6 mg, and 3 mg of PTX, 17-AAG, and RAPA mixed with 60, 60, and 30 mg of polymers, respectively, in 1.0 mL of water were evaluated. Each cassette (MWCO 20,000) contained 0.3 mL of Thermogel (n=3). Profile of release kinetics was fit into a first-order model (Prism ver 5.0).

[5] = Rehydration time, gelation time and physical observation of lyophilized sample and gel; type: physicochemical
Procedure: (§1) The drug delivery system containing a combination of three drugs can be prepared as follows. Paclitaxel (PTX; 6 mg), 17-AAG (6 mg), and rapamycin (RAPA; 3 mg) were combined with 1.5 mL of tent-Butanol (TBA) to obtain a clear solution at 60° C. Separately, cold water was added to PLGA1.5k-PEG1k-PLGA1.5k and the mixture was incubated at refrigeration temperature (4° C.) for 2-3 days to obtain 100 mg/mL of polymer solution. The polymer solution (1.5 mL) was rapidly added to 1.5 mL of drug/TBA mixture (50% TBA). The mixture was rapidly vortexed and warmed to 60° C. for less than one minute to prevent phase separation. The mixture was rapidly frozen with ethanol/dry ice (−72° C.) for 1 hour and lyophilized for 24 hours (below 0.8 bar at −45° C.).
(§2) Samples were diluted with cold water and kept at 4° C. Liquefied samples were passed through about […] (e.g., clear solution (x)) to about 0.2 μm (e.g., clear solution (y)) of a regenerated cellulose membrane filter (RC filter) at 4° C. and concentrations were quantified using RP-HPLC.
In general, an elegant lyophilized cake can improve rehydration time and solubility of the lyophilized cake in aqueous solution.

[6] = Drug content incorporated in thermogel quantified by RP-HPLC; type: physicochemical
Procedure: as §1, §2

SMILES: C=CCNC1=C2C[C@@H](C)C[C@H](OC)[C@H](O)[C@@H](C)/C=C(\C)[C@H](OC(N)=O)[C@@H](OC)/C=C\C=C(/C)C(=O)NC(=CC1=O)C2=O [17-AAG, 17-allylamino-17-demethoxygeldanamycin]
water solubility [1]: about 0.1 mg/mL | cytotoxic effect (in words) [2]: did not induce significant cytotoxic effect | IC50 ([2]; drug(s) dissolved in a mixture of DMSO and medium): 933.6 ± 1.8 nM

SMILES: CC1=C2C[C@H]3[C@@H](CC=C4C[C@@H](O)CC[C@@]43C)[C@@H]2CC[C@]12O[C@@H]1C[C@H](C)CN[C@H]1[C@H]2C [Cyclopamine (CYP), cyclopamine]
Thermogel Formation [3]: No | stable thermogel formation / gel integrity ([3]; warming the 4° C. solution with PLGA-PEG-PLGA to room temperature / 37° C.): a stable thermogel was unable to be prepared

Thermogel Formation [3]: Yes | time to form a gel at room temperature ([5]; room temperature): less than two minutes | time gel-like form is retained ([5]; room temperature, 6 mg PTX in 150 mg of polymer): more than two weeks | Physical obs. of gel ([5]; single, two and three drug compositions): Good | PTX gel incorporation by RP-HPLC analysis ([6]; 6 mg PTX in 150 mg of polymer and 50 wt. % TBA): 5.33 mg | Final level of drug, PTX ([6]; single, two and three drug compositions, initial level 6.0 mg/mL): 5.8 ± 0.5 mg/mL
SMILES: CC(=O)O[C@H]1C(=O)[C@@]2(C)[C@H]([C@H](OC(=O)c3ccccc3)[C@]3(O)C[C@H](OC(=O)[C@H](O)[C@@H](NC(=O)c4ccccc4)c4ccccc4)C(C)=C1C3(C)C)[C@]1(OC(C)=O)CO[C@@H]1C[C@@H]2O [PTX, paclitaxel]
k: release kinetic constant ([4]; release from Triogel (6 mg/6 mg/3 mg PTX/17-AAG/RAPA, 150 mg polymer, 1 mL water), n = 3): 0.0577 ± 0.0230 h⁻¹ | k (release kinetic constant) ([4]; release from two drug thermogel PTX/17-AAG (6 mg/6 mg in 120 mg polymer, 1 mL water)): 0.2037 ± 0.0575 h⁻¹ | k (release kinetic constant) ([4]; release from two drug thermogel PTX/RAPA (6 mg/3 mg in 90 mg polymer, 1 mL water)): 0.1035 ± 0.0354 h⁻¹ | k (release kinetic constant) ([4]; single drug compositions, n = 3): 0.0682 ± 0.0112 h⁻¹

SMILES: CO[C@H]1C[C@@H]2CC[C@@H](C)[C@@](O)(O2)C(=O)C(=O)N2CCCC[C@H]2C(=O)O[C@H]([C@H](C)C[C@@H]2CC[C@@H](O)[C@H](OC)C2)CC(=O)[C@H](C)/C=C(\C)[C@@H](O)[C@@H](OC)C(=O)[C@H](C)C[C@H](C)/C=C/C=C/C=C/1C [RAPA, rapamycin]
cytotoxic effect (in words) [2]: did not induce significant cytotoxic effect
